Experiments:
[1] = target: Serine/threonine-protein kinase MRCK beta (Homo sapiens) (UniProt Q9Y5S2); experiment: Selectivity interaction (KinomeScan (DiscoverX)) EUB0000229b CDC42BPB; details: at 10 µM
[2] = target: Mitogen-activated protein kinase kinase kinase 1 (Homo sapiens, UniProt Q13233); experiment: Selectivity interaction (KinomeScan (DiscoverX)) EUB0000045b MAP3K1
[3] = target: Serine/threonine-protein kinase SBK1 (Homo sapiens) (UniProt Q52WX2); experiment: Selectivity interaction (KinomeScan (DiscoverX)) EUB0000045b SBK1; details: at 1 µM
Chain of Serine/threonine-protein kinase SBK1 (Homo sapiens) (Q52WX2 whole entry): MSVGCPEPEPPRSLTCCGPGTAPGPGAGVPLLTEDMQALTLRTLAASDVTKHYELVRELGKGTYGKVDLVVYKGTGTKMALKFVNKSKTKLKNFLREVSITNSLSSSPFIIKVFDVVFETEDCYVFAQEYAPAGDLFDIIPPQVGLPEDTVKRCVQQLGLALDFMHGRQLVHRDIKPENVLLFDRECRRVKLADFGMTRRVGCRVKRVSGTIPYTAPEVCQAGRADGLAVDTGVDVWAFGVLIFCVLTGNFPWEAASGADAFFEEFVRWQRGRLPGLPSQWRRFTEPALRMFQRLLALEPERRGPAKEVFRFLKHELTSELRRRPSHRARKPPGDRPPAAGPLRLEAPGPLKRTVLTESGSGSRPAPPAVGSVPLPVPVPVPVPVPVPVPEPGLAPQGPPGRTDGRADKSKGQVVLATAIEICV

[4] = target: Tyrosine-protein kinase receptor Tie-1 (Homo sapiens) (UniProt P35590); experiment: Selectivity interaction (KinomeScan (DiscoverX)) EUB0001079a TIE1; details: at 1 µM
Chain of Tyrosine-protein kinase receptor Tie-1 (Homo sapiens) (P35590 whole entry): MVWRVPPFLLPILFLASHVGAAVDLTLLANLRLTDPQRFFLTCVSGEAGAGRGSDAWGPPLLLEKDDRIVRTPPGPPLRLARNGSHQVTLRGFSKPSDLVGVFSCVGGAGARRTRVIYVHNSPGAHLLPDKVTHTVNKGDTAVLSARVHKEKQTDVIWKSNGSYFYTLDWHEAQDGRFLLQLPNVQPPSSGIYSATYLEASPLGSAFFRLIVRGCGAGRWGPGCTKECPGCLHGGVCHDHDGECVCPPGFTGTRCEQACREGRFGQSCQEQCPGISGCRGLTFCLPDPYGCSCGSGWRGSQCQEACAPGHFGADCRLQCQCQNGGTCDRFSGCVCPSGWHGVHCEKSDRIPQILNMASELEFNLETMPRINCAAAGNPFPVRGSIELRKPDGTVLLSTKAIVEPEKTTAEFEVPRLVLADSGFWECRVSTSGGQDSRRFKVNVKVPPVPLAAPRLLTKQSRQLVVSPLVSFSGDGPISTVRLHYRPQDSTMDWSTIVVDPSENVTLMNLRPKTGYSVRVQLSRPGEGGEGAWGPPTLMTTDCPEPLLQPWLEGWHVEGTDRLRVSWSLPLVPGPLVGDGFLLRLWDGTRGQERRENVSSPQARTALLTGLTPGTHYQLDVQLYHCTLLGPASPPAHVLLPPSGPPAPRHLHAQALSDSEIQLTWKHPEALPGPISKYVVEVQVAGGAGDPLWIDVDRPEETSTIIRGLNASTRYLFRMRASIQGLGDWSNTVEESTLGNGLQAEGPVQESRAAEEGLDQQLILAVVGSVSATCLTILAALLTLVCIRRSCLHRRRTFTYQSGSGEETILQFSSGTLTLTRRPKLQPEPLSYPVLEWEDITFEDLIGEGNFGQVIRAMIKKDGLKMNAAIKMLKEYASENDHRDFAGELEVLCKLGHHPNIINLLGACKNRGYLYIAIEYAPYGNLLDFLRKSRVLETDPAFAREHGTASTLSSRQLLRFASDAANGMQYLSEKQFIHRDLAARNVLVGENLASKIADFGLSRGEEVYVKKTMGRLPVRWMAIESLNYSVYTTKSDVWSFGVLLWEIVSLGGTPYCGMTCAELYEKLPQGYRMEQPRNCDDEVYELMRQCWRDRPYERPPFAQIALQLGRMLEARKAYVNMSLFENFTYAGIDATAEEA

[5] = target: Interleukin-1 receptor-associated kinase 1 (Homo sapiens) (UniProt P51617); experiment: Selectivity interaction (Adapta Assay) EUB0001632a IRAK1; details: at 10 µM
Chain of Interleukin-1 receptor-associated kinase 1 (Homo sapiens) (P51617 whole entry, looked up): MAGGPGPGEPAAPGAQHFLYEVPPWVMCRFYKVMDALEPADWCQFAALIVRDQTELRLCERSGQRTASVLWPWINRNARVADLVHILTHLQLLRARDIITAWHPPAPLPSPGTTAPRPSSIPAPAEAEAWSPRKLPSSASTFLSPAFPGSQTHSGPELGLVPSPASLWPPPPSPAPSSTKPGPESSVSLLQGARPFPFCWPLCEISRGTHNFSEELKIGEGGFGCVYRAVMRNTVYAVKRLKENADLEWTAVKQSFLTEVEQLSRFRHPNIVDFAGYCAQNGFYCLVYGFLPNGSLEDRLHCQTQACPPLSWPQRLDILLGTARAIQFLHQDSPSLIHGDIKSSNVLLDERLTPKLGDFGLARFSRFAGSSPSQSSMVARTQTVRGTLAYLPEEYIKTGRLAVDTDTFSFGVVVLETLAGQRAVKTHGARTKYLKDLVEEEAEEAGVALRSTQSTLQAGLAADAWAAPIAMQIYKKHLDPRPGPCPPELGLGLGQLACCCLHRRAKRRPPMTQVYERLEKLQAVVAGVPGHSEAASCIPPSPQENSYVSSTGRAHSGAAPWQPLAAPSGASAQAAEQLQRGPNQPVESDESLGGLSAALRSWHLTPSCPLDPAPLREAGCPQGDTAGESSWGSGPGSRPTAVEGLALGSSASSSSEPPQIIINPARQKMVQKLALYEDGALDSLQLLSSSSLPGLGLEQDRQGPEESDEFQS

[6] = target: RAC-gamma serine/threonine-protein kinase (Homo sapiens, UniProt Q9Y243); details: at 10 µM
[7] = target: Death-associated protein kinase 1 (Homo sapiens, UniProt P53355); details: at 10 µM
[8] = target: T1, Dual specificity protein kinase TTK (Homo sapiens) (UniProt P33981); experiment: Selectivity interaction (KinomeScan (DiscoverX)) EUB0001049a TTK; details: at 1 µM
T1 sequence (whole entry): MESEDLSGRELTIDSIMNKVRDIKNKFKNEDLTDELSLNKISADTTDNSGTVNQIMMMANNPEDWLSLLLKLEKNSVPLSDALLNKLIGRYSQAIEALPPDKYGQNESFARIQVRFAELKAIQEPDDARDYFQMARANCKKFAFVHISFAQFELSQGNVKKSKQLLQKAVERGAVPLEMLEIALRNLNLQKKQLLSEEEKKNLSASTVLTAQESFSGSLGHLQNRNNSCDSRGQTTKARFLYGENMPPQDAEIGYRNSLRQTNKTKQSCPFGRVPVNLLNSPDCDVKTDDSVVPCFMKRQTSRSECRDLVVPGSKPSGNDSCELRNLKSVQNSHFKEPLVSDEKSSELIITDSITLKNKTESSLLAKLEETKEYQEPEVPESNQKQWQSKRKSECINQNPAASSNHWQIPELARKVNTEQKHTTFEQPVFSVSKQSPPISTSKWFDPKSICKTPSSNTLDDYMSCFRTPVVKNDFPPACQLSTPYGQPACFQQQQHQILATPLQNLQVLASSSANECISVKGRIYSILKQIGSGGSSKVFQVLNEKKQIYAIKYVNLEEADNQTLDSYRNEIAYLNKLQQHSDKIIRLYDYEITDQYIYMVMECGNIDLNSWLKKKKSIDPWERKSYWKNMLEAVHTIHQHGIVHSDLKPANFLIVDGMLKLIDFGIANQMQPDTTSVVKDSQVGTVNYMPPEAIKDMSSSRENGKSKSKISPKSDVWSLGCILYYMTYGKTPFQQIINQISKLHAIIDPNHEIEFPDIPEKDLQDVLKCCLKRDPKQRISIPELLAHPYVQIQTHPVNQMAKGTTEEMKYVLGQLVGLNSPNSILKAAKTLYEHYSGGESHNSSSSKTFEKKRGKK

[9] = target: 5-hydroxytryptamine receptor 2A (Homo sapiens, UniProt P28223); experiment: Selectivity interaction (Panel of kinases, GPCRs, ion channels and transporters (enzymatic assay)) EUB0000223bCl HTR2A
[10] = target: Dual specificity mitogen-activated protein kinase kinase 1 (Homo sapiens, UniProt Q02750); experiment: Selectivity interaction (ActivX KiNativ screen (ex vivo kinase selectivity in human PBMCs)) EUB0001619a MAP2K1; format: cell-based; details: PBMC, at 1 µM
[11] = target: T2, Myotonin-protein kinase (Homo sapiens) (UniProt Q09013); experiment: Selectivity interaction (KinomeScan (DiscoverX)) EUB0001619a DMPK; details: at 1 µM
T2 sequence (whole entry): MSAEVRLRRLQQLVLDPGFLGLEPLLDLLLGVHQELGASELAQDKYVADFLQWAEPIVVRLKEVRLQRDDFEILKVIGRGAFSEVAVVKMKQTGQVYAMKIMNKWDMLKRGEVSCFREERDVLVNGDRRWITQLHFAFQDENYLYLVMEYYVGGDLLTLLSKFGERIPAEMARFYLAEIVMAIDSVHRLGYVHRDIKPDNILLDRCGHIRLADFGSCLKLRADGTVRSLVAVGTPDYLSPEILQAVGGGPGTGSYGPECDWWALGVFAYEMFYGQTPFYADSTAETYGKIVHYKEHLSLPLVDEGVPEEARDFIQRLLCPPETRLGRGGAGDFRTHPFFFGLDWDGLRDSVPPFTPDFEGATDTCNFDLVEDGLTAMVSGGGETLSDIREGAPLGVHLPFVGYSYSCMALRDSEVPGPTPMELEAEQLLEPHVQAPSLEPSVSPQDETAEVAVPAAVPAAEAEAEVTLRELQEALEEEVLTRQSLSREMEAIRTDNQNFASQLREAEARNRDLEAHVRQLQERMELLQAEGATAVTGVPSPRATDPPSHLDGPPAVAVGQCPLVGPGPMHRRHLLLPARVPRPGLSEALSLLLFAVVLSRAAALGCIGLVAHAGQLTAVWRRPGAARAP

[12] = test system: Phosphatidylinositol 4,5-bisphosphate 3-kinase catalytic subunit alpha isoform (Homo sapiens), P42336 [H1047L]; details: at 10 µM
Chain of Phosphatidylinositol 4,5-bisphosphate 3-kinase catalytic subunit alpha isoform (Homo sapiens), P42336 [H1047L] (P42336 whole entry H1047L, canonical isoform): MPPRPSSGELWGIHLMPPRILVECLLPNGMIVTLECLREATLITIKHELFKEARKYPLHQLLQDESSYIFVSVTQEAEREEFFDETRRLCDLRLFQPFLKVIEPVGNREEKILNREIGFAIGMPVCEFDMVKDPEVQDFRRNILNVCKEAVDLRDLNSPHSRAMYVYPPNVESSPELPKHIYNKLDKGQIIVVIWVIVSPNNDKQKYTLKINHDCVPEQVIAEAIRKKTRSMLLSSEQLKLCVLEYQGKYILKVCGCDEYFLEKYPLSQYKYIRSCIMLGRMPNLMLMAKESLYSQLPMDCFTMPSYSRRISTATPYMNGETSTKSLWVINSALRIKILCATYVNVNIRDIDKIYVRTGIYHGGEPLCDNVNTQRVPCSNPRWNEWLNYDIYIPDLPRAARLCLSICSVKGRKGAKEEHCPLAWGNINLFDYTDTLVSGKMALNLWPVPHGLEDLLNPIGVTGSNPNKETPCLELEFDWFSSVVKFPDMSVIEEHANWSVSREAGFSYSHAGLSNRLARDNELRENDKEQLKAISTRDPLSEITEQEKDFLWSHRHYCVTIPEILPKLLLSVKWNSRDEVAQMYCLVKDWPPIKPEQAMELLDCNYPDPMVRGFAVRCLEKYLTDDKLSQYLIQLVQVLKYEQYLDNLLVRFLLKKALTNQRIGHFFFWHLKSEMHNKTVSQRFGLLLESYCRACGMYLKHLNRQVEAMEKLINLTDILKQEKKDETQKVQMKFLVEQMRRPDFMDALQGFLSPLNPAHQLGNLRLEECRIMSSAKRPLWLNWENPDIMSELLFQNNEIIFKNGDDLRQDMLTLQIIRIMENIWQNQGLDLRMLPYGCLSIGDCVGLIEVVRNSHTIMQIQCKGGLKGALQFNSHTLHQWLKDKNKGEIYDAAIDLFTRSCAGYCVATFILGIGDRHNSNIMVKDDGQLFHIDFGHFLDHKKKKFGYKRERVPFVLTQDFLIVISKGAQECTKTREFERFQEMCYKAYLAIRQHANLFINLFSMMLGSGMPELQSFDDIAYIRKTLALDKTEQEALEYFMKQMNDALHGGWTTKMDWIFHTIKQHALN

[13] = target: T3, Serine/threonine-protein kinase Chk1 (Homo sapiens) (UniProt O14757); experiment: Selectivity interaction (KinomeScan (DiscoverX)) EUB0000607a CHEK1; details: at 10 µM
T3 sequence (whole entry): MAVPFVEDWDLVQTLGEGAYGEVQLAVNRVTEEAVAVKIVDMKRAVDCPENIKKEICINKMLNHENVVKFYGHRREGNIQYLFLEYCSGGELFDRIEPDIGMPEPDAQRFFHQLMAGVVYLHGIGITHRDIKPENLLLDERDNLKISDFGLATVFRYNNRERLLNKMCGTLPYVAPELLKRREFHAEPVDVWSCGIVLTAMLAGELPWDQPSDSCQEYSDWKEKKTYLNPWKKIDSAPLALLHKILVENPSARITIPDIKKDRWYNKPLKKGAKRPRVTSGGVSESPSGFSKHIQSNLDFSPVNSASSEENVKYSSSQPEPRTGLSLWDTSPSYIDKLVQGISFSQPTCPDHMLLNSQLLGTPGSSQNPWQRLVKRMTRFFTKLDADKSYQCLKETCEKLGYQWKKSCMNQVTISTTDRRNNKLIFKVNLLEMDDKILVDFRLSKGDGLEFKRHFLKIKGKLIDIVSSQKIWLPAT

[14] = target: Serine/threonine-protein kinase 24 (Homo sapiens) (UniProt Q9Y6E0); experiment: Selectivity interaction (KinomeScan (DiscoverX)) EUB0000618a STK24; details: at 10 µM
[15] = target: Receptor-interacting serine/threonine-protein kinase 2 (Homo sapiens, UniProt O43353); details: at 10 µM

Chain of Mitogen-activated protein kinase kinase kinase 1 (Q13233 whole entry): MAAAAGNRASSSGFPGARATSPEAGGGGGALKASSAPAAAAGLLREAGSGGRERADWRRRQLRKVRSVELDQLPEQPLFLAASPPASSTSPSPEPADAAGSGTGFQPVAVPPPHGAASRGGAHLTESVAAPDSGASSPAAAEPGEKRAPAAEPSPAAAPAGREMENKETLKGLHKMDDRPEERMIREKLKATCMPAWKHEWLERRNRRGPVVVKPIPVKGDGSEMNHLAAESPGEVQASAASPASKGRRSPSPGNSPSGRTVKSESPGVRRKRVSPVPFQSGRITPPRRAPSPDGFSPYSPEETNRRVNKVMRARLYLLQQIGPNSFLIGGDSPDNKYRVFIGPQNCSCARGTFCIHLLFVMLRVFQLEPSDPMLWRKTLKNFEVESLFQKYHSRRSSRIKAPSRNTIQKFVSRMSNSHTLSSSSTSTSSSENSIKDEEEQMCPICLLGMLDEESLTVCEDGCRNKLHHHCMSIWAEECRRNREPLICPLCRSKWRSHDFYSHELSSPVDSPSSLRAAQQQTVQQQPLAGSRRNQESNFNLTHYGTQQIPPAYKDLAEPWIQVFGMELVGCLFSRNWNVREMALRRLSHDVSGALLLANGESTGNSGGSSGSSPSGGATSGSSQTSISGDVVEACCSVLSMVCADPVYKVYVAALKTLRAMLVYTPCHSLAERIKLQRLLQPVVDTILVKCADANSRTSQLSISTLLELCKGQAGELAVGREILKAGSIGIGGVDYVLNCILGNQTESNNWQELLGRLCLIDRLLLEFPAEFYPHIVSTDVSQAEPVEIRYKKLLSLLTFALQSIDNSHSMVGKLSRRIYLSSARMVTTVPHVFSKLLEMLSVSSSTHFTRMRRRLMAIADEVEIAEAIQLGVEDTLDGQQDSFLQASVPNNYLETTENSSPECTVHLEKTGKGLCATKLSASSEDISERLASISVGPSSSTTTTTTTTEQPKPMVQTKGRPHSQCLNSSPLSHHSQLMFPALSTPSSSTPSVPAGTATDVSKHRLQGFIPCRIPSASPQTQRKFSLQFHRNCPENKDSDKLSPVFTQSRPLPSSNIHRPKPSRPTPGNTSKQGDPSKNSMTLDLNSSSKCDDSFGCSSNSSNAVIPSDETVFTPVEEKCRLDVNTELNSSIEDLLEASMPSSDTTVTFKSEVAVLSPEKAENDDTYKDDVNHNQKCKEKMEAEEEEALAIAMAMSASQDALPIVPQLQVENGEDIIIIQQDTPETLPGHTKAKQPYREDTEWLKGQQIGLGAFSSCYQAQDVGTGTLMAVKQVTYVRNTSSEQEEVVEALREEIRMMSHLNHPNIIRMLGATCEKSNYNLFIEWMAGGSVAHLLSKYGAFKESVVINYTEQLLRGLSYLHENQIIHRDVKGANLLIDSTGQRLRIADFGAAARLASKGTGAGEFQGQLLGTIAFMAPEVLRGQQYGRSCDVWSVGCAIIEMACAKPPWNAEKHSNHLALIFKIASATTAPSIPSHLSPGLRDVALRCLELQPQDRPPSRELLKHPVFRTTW

In the case of `COc1cc(N(C)c2ccnc3ccc(C(F)(F)F)cc23)cc(OC)c1OC`, the % binding [1] is reported as 100%.
`C=CC(=O)Nc1cc(-n2c(=O)ccc3cnc4ccc(-c5ccc(NS(C)(=O)=O)cc5)cc4c32)ccc1C` was tested, and the % of control ([2]; at 1 µM) was 100%, the % of control ([2]; at 10 µM) was 100% and the % of control [3] was 4.6%.
For `Nc1cnc(N2CCc3cc(S(=O)(=O)Nc4c(F)cc(Cl)cc4F)cc(N4CCCC4=O)c32)nc1` [TP-020n], the % of control [4] was 100%.
With `Cn1cc(-n2cnc3c(NCc4nc5cc(Cl)c(Cl)cc5[nH]4)nc(N4CCOCC4)nc32)cn1` the % of inhibition [5] was -6.48%.
In the case of `Cc1cc([C@@H](C)Nc2ccccc2C(=O)O)c2nc(N3CCOCC3)cc(=O)n2c1` [AZD-6482], the % of control [6] is reported as 100% and the % of control [7] is reported as 95%.
Work on `COc1cc(Nc2nc(C)cc(-c3cnn4nc(OC)ccc34)n2)cc(C(F)(F)F)c1` yielded a % of control [8] of 90%.
Work on `COc1cc(C(=O)N2CC[C@@H](O)[C@@H](N)C2)cc2nc(-c3cc4ccccc4n3CC3CC3)n(C)c12` yielded a pXC50 [9] of under 4.4 M.
`N#Cc1cccc(-c2c[nH]c3ncnc(N4CCOCC4)c23)c1` showed a % of inhibition [10] of 0% and a % of control [11] of 87%.
Molecule `CNC(=O)Nc1ccc(-c2nc(N3CC4CCC(C3)O4)c3cnn(C4CCC5(CC4)OCCO5)c3n2)cc1` has a % of control [12] of 15% and a % of control [13] of 100%.
In the case of `O[C@H]1CC[C@H](Nc2ncc3nc(Nc4c(F)cc(F)cc4F)n([C@H]4CCOC4)c3n2)CC1`, the % of control [14] is reported as 88%.
For `CCN(CC)CCCCNc1ncc2cc(-c3cc(OC)cc(OC)c3)c(NC(=O)NC(C)(C)C)nc2n1`, the % of control [15] was 100%.

Reference: ChEMBL document CHEMBL5465560, “Selectivity Literature for EUbOPEN Chemogenomic Library” (2024)
